In one assay the test system is KB3-1 cells. Type of assay: cell-based. The settings on record: with immunotoxin, data not shown.
The next assay deals with H69AR cells. Format: cell-based.
A further assay deals with Raji cells. Format: cell-based.
The test system of another assay is SKOV3. The assay is described as follows: WST-1 viability of SKOV3 cells. Type of assay: cell-based. The settings on record: with immunotoxin, data not shown. The method, then:
The inhibition of protein synthesis in treated cells was assayed by the addition of 3H-leucine (2 μCi/mL) for 4 hours in 96-well plates. Filter mats and samples were used to count cells using a Wallac beta plate reader. Water-soluble tetrazolium-1 (WST-1; Roche) was added to 96-well plates at a final concentration of 10% and absorbance measured at 450 nm to measure cytotoxicity. Te CellTiter-Glo Luminescent Cell Viability Assay kit (Promega) was used to assay ATP. The Caspase-Glo kit from Promega was used to detect Caspase 3/7. Caspase 3 activity was measured using one of two fluorescent substrates Caspase 3 Fluorometric Assay Kit (R&D Systems) or Caspase 3 Fluorometric-KIT (Invitrogen). The results are reported in fluorescent units per microgram of cell protein. For short-exposure cell-killing assays: KB3-1 cells were seeded in six-well plates at a density of 5×10^4/mL. The next day, cells were treated for 4 hours with either immunotoxin alone, ABT-737 alone, or combinations of both as indicated. At the end of the treatment, the cells were washed with PBS, trypsinized, and re-plated and incubated for 6 more days. Finally, the cells were washed with PBS and then stained with methylene blue (0.5%) in methanol/water (50:50 by volume).

A further assay deals with ATF4 in KB3-1 cells. The assay is described as follows: ER stress response (ATF4 immunoblot) in KB3-1 cells. To be noted: 4 hours, ABT-737 10 μmol/L, DTT 10 mmol/L. Format: cell-based. From the text:
(§1) Immunoblot analysis is inadequate to detect the cellular uptake of immunotoxins, added at subnanomolar concentrations. Thus, we could not document directly that additional molecules of toxin were delivered to the cytosol. Instead, we sought other evidence that ABT-737 was directly or indirectly interacting with the ER. In various cell types, Bcl-2 family members are found associated with the ER (Oakes S A, et al., Proc Natl Acad Sci USA 2005; 102:105-10 and Scorrano L, et al., Science 2003; 300:135-9). To test if ABT-737 interacted with the ER and provoked an ER stress response, we incubated KB3-1 or DLD1 cells for 4 hours with either ABT-737 or with DTT; the latter being a well-known mediator of ER stress. Treated cell extracts were analyzed for the transcription factor ATF4 (Bernales S, Papa F R, Walter P. Annu Rev Cell Dev Biol 2006; 22:487-508). […] Overall, our results are consistent with ABT-737 acting on the ER and causing, either directly or indirectly, an increased translocation of PE- or CET-based immunotoxins to the cytosol.

For the next assay, the system named is ATF4 in DLD1 cells. The assay is described as follows: ER stress response (ATF4 immunoblot) in DLD1 cells. Format: cell-based. The settings on record: 4 hours, ABT-737 10 μmol/L, DTT 10 mmol/L.
Text: as §1

Assay [1] concerns caspase 3/7 in DLD1 cells. Format: cell-based.
For another assay, the target named is CD22 (human) (UniProt P20273). The assay is described as follows: cell-based or functional assay.

Here are results for five compounds from US20120276190A1 (priority 2009, published 2012).

Chain of UniProt P20273 (P20273 20-847): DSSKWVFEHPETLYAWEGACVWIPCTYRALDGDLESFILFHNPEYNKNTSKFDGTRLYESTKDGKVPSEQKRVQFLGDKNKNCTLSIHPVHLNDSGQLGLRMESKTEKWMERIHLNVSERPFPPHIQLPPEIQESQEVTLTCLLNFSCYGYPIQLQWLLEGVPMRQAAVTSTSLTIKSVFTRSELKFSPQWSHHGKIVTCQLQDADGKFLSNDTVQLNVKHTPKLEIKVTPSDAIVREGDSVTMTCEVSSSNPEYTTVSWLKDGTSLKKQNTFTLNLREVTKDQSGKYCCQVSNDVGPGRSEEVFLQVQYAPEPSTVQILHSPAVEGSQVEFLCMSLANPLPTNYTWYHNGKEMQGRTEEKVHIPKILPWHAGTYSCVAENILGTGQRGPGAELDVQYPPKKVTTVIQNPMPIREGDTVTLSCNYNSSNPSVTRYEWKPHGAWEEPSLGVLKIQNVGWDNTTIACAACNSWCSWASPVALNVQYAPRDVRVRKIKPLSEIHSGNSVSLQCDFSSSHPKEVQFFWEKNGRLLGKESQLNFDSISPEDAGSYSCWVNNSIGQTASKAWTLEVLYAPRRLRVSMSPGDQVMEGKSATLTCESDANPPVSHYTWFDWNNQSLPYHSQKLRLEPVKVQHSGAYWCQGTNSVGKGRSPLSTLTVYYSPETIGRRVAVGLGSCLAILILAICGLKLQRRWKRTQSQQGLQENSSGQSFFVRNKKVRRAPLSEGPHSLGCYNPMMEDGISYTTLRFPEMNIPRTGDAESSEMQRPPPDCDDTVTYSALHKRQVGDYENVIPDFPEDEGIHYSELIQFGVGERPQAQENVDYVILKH

As to `CC1(C)CCC(c2ccc(Cl)cc2)=C(CN2CCN(c3ccc(C(=O)NS(=O)(=O)c4ccc(N[C@H](CCN5CCOCC5)CSc5ccccc5)c(S(=O)(=O)C(F)(F)F)c4)cc3)CC2)C1` [ABT-263], the “enhancement of KB3-1 killing” value with KB3-1 cells is given as “similarly enhanced”. Further, in the assay with H69AR cells, the “effect of combination with HB21-PE40” value is “synergistic and leads to cell death via apoptosis”; the “sensitivity to killing, agent alone” value was “resistant”. In addition, in the assay on Raji cells, the “apoptosis, ABT-263 alone” value is listed as “little or no apoptosis”; the “total apoptosis, in combination with BL22” value came out at 62%; the “total apoptosis, in combination with HA22” value amounted to 68%. For the same compound, the “enhancement of SKOV3 killing” value with SKOV3 is given as “similarly enhanced”.

Turning to `O[C@@H](CS)[C@@H](O)CS` [DTT], the “ER stress response (ATF4)” value with ATF4 in KB3-1 cells and in the assay on ATF4 in DLD1 cells was “strongly upregulated” throughout.

Take `CN[C@@H]1C[C@H]2O[C@@](C)([C@@H]1OC)n1c3ccccc3c3c4c(c5c6ccccc6n2c5c31)C(=O)NC4` [staurosporine]: the “apoptosis, positive control for generating maximal apoptosis” value in the assay with Raji cells is given as approximately 74%.

Turning to `CC(C)C[C@H](NC(=O)[C@H](Cc1ccccc1)NC(=O)c1cnccn1)B(O)O` [velcade, bortezomib], in assay [1], the “apoptosis by caspase 3/7 activity” value is given as “increased caspase 3/7 activity”.

For “BL22 (from UniProt P11439 278-389; P11439 406-638)”, the total apoptosis of Raji cells in 24 hrs (Annexin V / 7-AAD flow cytometry) with CD22 (human) was 47%.
